Values of other authors, collected in US6555712B2, “Process for the preparation of diorganotrisulfide” (Indian Institute of Technology, priority 2001, dated 2003).
Read-outs that look alike come from different tables or passages of the source.

Key:
[1] = tested on: Tribolium castaneum (Herbst); set-up: egg hatching: dose or concentration left out as unconfirmed
[2] = tested on: Sitophilus zeamais (Motschulsky)
[3] = tested on: Trypanosoma brucei brucei, T.b. rhodesiense, T.b. gambiense, T. evansi, T. congolense and T. equiperdum; details: in vitro; one range for six Trypanosoma species
[4] = tested on: whole blood platelet-aggregation; details: DATS present in the steam-distilled component of garlic extract
[5] = tested on: canine mammary tumor cells (CMT-13)
Entamoeba histolytica = details: in vitro
macrophages [6] = tested on: macrophages
[7] = tested on: intracellular Ca2+ in A549 cells
Giardia Lamblia = details: in vitro
[8] = tested on: HEFL-12, human embryo fibroblast; details: HEFL-12 cell line, in vitro
[9] = tested on: MASEF, Mastomys natalensis embryo fibroblast; details: MASEF cell line, in vitro
[10] = tested on: cultured human neoplastic (A549) lung cells; details: 1 microM for 24 hours
macrophages [11] = details: 1-100 micrograms/ml
[12] = tested on: tumor derived immunosuppressive factors produced by S180 cells and Ehrlich ascitic cancer cells
[13] = tested on: human nonneoplastic (MRC-5) lung cells; details: 10 microM
[14] = tested on: human neoplastic (A549) lung cells; details: 10 micromolar

Question: What does the source list for `C=CCSSC` [Methylallyl disulfide, methylallyl disulfide, reference compound]?
Answer: growth rate, food consumption, and food utilization of adults ([1]; T. castaneum adults): significantly decreased; feeding deterrence index ([1]; T. castaneum adults, 1.52 mg/g food): 44%; nutritional indices of T. castaneum larvae ([1]; T. castaneum larvae): did not affect; growth rate, food consumption, and food utilization of adults ([2]; S. zeamais adults): significantly decreased; feeding deterrence index ([2]; S. zeamais adults, 6.08 mg/g food): 44%

Question: What does the source list for `C=CCSSSCC=C` [DATS, Diallyltrisulfide]?
Answer: IC50 (concentration which inhibits metabolism or growth of parasites by 50%) [3]: 0.8-5.5 micrograms/ml; Inhibition of whole blood platelet-aggregation [4]: high; growth of canine mammary tumor cells (CMT-13) [5]: markedly inhibits; IC50 (concentration which inhibits metabolism or growth of parasites by 50%) (Entamoeba histolytica): 59 micrograms/ml; production of hydrogen peroxide (H2O2) by macrophages (macrophages [6]): enhance; intracellular Ca2+ in A549 cells ([7]; 10 microM, during the first four hours after treatment): marked and progressive increase; intracellular Ca2+ in A549 cells after refeeding the medium without DATS ([7]; after refeeding medium without DATS): returned to near control levels within one hour; egg hatching ([1]; T. castaneum): totally suppressed; feeding deterrence ([1]; T. castaneum adults, 0.75 mg/g food): 85%; contact and fumigant toxicities ([1]; T. castaneum adults, comparison with methylallyl disulfide): greater than that of methylallyl disulfide; feeding deterrence index ([1]; T. castaneum larvae, 2.98 mg/g food): 51%; larval and adult emergence ([1]; T. castaneum, at 0.08 mg/cm2): totally suppressed; nutritional indices ([1]; all of the insects tested (T. castaneum)): significantly reduced; IC50 (concentration which inhibits metabolism or growth of parasites by 50%) (Giardia Lamblia): 14 micrograms/ml; maximum tolerated concentration [8]: 25 micrograms/ml; maximum tolerated concentration [9]: 25 micrograms/ml; apoptosis, as indicated by increased DNA fragmentation [10]: significantly induced apoptosis; production of NO by macrophages (macrophages [11]): can inhibit; effect on activation of T lymphocytes by Con A (T lymphocytes; 3.125-12.5 micrograms/ml): augmented; effect on T cell activation (T lymphocytes; high concentration (50 micrograms/ml)): inhibitory effect; feeding deterrence index ([2]; S. zeamais adults, 2.98 mg/g food): 27%; contact and fumigant toxicities ([2]; S. zeamais adults, comparison with methylallyl disulfide): greater than that of methylallyl disulfide; nutritional indices ([2]; all of the insects tested (S. zeamais)): significantly reduced; inhibition by tumor derived immunosuppressive factors of the activation of T cells (inhibitory rate) [12]: reduce the inhibitory rate significantly; MRC-5 cell growth [13]: did not alter; reduction of A549 growth [14]: 47%
